Data published in patent US10307413B2, “Tetrahydro- and dihydro-isoquinoline PRMT5 inhibitors and uses thereof” (Epizyme, Inc., priority 2013, dated 2019).
Like-named read-outs stand apart in the source and are kept apart here.

Assays:
[1] = tested on: Z-138 cell line; test: Z-138 Proliferation Assay (Cell Titer Glo, 5 days); assay type: cell-based; conditions: Homo sapiens, 120 h, Z-138 cells, 5 days, read-out: Proliferation EC50
In short: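 Viability via CellTiter-Glo luminescence (ATP) after 5-day incubation at 37 °C, 5% CO2. Compounds tested in triplicate, nine 3-fold steps, highest final concentration 20 μM in 0.2% DMSO; 50% inhibitory concentration by 4-parameter fit of normalized curves.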

[2] = target: PRMT5/MEP50 (Homo sapiens (Human), UniProt O14744); test: PRMT5 Biochemical Assay (PRMT5/MEP50 enzyme assay on peptide substrate, 3H-SAM Flashplate)
In short: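 Radiometric methylation of a biotin-tagged H4(1-15) peptide by human PRMT5/MEP50 from baculovirus/Sf9, with ³H-SAM incorporation read on streptavidin Flashplates. Buffer: Bicine pH 7.6, TCEP, BSG, Tween20; compound preincubated 30 min at 25 °C; stopped with 600 µM final unlabeled SAM. DMSO and SAH controls; IC50 from fitted % inhibition.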

[3] = tested on: symmetric di-methyl arginine in Z-138 cells; test: Z-138 Methylation Assay (In Cell Western for symmetric di-methyl arginine and DNA content); assay type: cell-based; conditions: Homo sapiens, read-out: ICW EC50
In short: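 In-cell western: symmetric di-methyl arginine signal ratioed to DRAQ5 DNA content after 96 h compound exposure of Z-138 cells seeded at 50,000 cells/mL.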

Chain of PRMT5/MEP50 (O14744 other isoform, or with tags, fused parts or gaps): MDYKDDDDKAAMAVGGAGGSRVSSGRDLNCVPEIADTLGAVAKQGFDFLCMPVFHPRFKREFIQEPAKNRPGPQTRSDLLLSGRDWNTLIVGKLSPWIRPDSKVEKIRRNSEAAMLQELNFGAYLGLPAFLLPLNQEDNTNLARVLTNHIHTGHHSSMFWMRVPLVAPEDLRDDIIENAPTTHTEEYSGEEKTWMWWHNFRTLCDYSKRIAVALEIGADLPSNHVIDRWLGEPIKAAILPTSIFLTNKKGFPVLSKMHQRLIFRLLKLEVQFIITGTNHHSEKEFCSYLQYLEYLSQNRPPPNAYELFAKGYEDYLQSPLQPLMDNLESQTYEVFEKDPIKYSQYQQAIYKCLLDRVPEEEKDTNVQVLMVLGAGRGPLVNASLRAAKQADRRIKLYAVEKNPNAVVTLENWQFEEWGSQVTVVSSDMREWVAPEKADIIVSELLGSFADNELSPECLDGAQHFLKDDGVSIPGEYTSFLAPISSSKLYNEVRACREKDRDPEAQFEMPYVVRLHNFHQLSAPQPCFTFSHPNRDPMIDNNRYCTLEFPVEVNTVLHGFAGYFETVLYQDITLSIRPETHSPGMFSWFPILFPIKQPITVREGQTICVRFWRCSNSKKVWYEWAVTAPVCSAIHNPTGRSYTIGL
Chain of PRMT5/MEP50 (Q9BQA1 other isoform, or with tags, fused parts or gaps partner): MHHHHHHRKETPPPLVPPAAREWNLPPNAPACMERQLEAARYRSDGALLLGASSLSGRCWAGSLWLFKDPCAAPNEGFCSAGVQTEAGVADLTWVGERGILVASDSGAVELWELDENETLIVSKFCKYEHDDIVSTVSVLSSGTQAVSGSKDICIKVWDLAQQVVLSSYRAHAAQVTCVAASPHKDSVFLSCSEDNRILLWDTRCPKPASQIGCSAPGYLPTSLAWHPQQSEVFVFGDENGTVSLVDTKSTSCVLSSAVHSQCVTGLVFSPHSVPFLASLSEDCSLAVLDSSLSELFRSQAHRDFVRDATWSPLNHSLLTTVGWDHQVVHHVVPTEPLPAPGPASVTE

| SMILES | EC50 ([1]; Cell Titer Glo) [nM] | IC50 ([2]; PRMT5 biochemical assay) [nM] | EC50 ([3]; In Cell Western methylation) [nM] | EC50 [1] [nM] | IC50 [2] [nM] | EC50 [3] [nM] |
| --- | --- | --- | --- | --- | --- | --- |
| CC(=O)N1CC(Nc2ccnc(C(=O)NC[C@H](O)CN3CCc4ccccc4C3)c2)C1 [Compound 635] | < 100 | < 100 | < 100 | – | – | – |
| COc1cc(C(=O)NC[C@H](O)CN2CCc3ccccc3C2)cc(NC2CCN(C(C)=O)CC2)n1 [Compound 627] | < 100 | < 100 | < 100 | – | – | – |
| CN(C)C(=O)[C@H]1CC[C@@H](Nc2cc(C(=O)NC[C@H](O)CN3CCc4ccccc4C3)ncn2)CC1 [Compound 598] | 1000 to 10000 | < 100 | < 100 | – | – | – |
| CC(C)C(=O)N1CC(Nc2cc(C(=O)NC[C@H](O)CN3CCc4ccccc4C3)ccn2)C1 [Compound 489] | < 100 | < 100 | < 100 | – | – | – |
| O=C(NC[C@H](O)CN1CCc2ccccc2C1)c1cc(NC2CCN(C(=O)C3CC3)CC2)ncn1 [Compound 418] | < 100 | < 100 | < 100 | – | – | – |
| O=C(NC[C@H](O)CN1CCc2ccccc2C1)c1cc(N[C@H]2C[C@H](C(=O)N3CCCCC3)C2)ncn1 [Compound 511] | < 100 | < 100 | < 100 | – | – | – |
| O=C(NC[C@H](O)CN1CCc2ccccc2C1)c1cncc(NC2COC2)n1 [Compound 366] | – | – | – | > 20000 | 101 to 1000 | 101 to 1000 |
| CN(C[C@H](O)CN1CCc2ccccc2C1)C(=O)c1ccnc(N(C)C2CCOCC2)c1 [Compound 358] | – | – | – | > 20000 | 1000 to 10000 | 101 to 1000 |
| CC(O)(CNC(=O)c1cc(NC2CCN(C(=O)C3CC3)CC2)ncn1)CN1CCc2ccccc2C1 (stereo not drawn) [Compound 650] | 1000 to 10000 | < 100 | < 100 | – | – | – |
| CC(=O)N1CC(Nc2cc(C(=O)NC(C)C(O)CN3CCc4ccccc4C3)ncn2)C1 (stereo not drawn) [Compound 524] | > 5000 | 101 to 1000 | 101 to 1000 | – | – | – |
| CC(=O)N1CC(Nc2cc(C(=O)NC[C@H](O)CN3CCc4cc(C)ccc4C3)ncn2)C1 [Compound 674] | 1000 to 10000 | < 100 | < 100 | – | – | – |
| O=C(NC[C@H](O)CN1CCc2ccccc2C1)c1cc(N[C@H]2CC[C@@H](O)CC2)ncn1 [Compound 592] | 101 to 1000 | < 100 | < 100 | – | – | – |
| Cc1cnc(NC2CCNC2)cc1C(=O)NC[C@H](O)CN1CCc2ccccc2C1 (stereo partly drawn) [Compound 400] | > 20000 | < 100 | > 1000 | – | – | – |
| CC(=O)N1CCC(Nc2cc(C(=O)NC[C@H](O)CN3CCc4ccccc4C3(C)C)ncn2)CC1 [Compound 606] | > 5000 | 101 to 1000 | 101 to 1000 | – | – | – |
| NC(=O)CN1CCC(Nc2cc(C(=O)NC[C@H](O)CN3CCc4ccccc4C3)ncn2)CC1 [Compound 532] | 101 to 1000 | < 100 | < 100 | – | – | – |
| O=C(NC[C@H](O)CN1CCc2ccccc2C1)c1cc(NC2COC2)nc(N2CCC2)n1 [Compound 526] | 101 to 1000 | < 100 | < 100 | – | – | – |
| O=C(NC[C@H](O)CN1CCc2ccccc2C1)c1ccnc(NC2CCN(C(=O)C3CC3)CC2)c1 [Compound 472] | < 100 | < 100 | < 100 | – | – | – |
| Cc1cccc2c1CCN(C[C@@H](O)CNC(=O)c1cc(NC3COC3)ncn1)C2 [Compound 683] | > 5000 | 101 to 1000 | 101 to 1000 | – | – | – |
| Cc1ccc2c(c1)CCN(C[C@@H](O)CNC(=O)c1cc(NC3COC3)ncn1)C2 [Compound 681] | > 5000 | 101 to 1000 | 101 to 1000 | – | – | – |
| CNC(=O)CN1CC(Nc2cc(C(=O)NC[C@H](O)CN3CCc4ccccc4C3)ncn2)C1 [Compound 622] | 1000 to 10000 | < 100 | 1000 to 10000 | – | – | – |
| CCN(C)[C@H]1CC[C@H](Nc2cc(C(=O)NC[C@H](O)CN3CCc4ccccc4C3)ncn2)CC1 [Compound 662] | 101 to 1000 | < 100 | < 100 | – | – | – |

| SMILES | EC50 ([1]; Cell Titer Glo) [nM] | IC50 ([2]; PRMT5 biochemical assay) [nM] | EC50 ([3]; In Cell Western methylation) [nM] | EC50 [1] [nM] | IC50 [2] [nM] | EC50 [3] [nM] |
| --- | --- | --- | --- | --- | --- | --- |
| CC(=O)N1CCC(Nc2cc(C(=O)NCC(C)CN3CCc4ccccc4C3)ccn2)CC1 (stereo not drawn) [Compound 660] | 101 to 1000 | < 100 | < 100 | – | – | – |
| CCc1nc(NC2CNC2)cc(C(=O)NC[C@H](O)CN2CCc3ccccc3C2)n1 [Compound 487] | 1000 to 10000 | < 100 | 101 to 1000 | – | – | – |
| O=C(NC[C@H](O)CN1CCc2ccccc2C1)c1ccc(OCCCN2CCOCC2)cc1 [Compound 363] | – | – | – | 1000 to 10000 | < 100 | < 100 |
| CN(C)CCN(C)c1nc(NC2CNC2)cc(C(=O)NC[C@H](O)CN2CCc3ccccc3C2)n1 [Compound 528] | 101 to 1000 | < 100 | 101 to 1000 | – | – | – |
| Cc1cnc(NC2CCN(C)C2)cc1C(=O)NC[C@H](O)CN1CCc2ccccc2C1 (stereo partly drawn) [Compound 401] | 1000 to 10000 | < 100 | 101 to 1000 | – | – | – |
| CNCCN(C)c1nc(NC2COC2)cc(C(=O)NC[C@H](O)CN2CCc3ccccc3C2)n1 [Compound 476] | 101 to 1000 | < 100 | < 100 | – | – | – |
| CC(=O)N1CCC(Nc2cc(C(=O)NC[C@H](O)CN3CCc4ccccc4C3)cc(N3CCOCC3)n2)CC1 [Compound 611] | < 100 | < 100 | < 100 | – | – | – |
| Cc1ccc2c(c1)CN(C[C@@H](O)CNC(=O)c1cc(NC3COC3)ncn1)CC2 [Compound 666] | > 5000 | 101 to 1000 | 101 to 1000 | – | – | – |
| O=C(NC[C@H](O)CN1CCc2ccccc2C1)c1cc(NC2COC2)nc(C2CC2)n1 [Compound 480] | 101 to 1000 | < 100 | < 100 | – | – | – |
| O=C(NC[C@H](O)CN1CCc2ccccc2C1)c1cc(NC2CNC2)nc(N2CCN(C(=O)C3CC3)CC2)n1 [Compound 485] | 1000 to 10000 | < 100 | 101 to 1000 | – | – | – |
| CC(C)C(=O)N1CCC(Nc2cc(C(=O)NC[C@H](O)CN3CCc4ccccc4C3)ccn2)CC1 [Compound 469] | < 100 | < 100 | < 100 | – | – | – |
| O=C(NC[C@H](O)CN1CCc2ccccc2C1)c1ccc(OCCN2CCC2)cc1 [Compound 388] | – | – | – | 1000 to 10000 | < 100 | < 100 |
| Cc1c(NC2COC2)ncnc1C(=O)NC[C@H](O)CN1CCc2ccccc2C1 [Compound 604] | 1000 to 10000 | < 100 | 101 to 1000 | – | – | – |
| O=C(NC[C@H](O)CN1CCc2ccccc2C1)c1cc(O)nc(NC2CCC2)c1 [Compound 434] | 101 to 1000 | < 100 | < 100 | – | – | – |
| O=C(NC[C@H](O)CN1CCc2ccccc2C1)c1ccnc(Nc2cc[nH]n2)c1 [Compound 381] | – | – | – | 1000 to 10000 | < 100 | < 100 |
| O=C(NC[C@H](O)CN1CCc2ccccc2C1)c1ccc(OCCN2CCCCC2)cc1 [Compound 371] | – | – | – | 1000 to 10000 | < 100 | < 100 |
| CC(=O)N1CCC(Nc2cc(C(=O)NCC(F)CN3CCc4ccccc4C3)ncn2)CC1 (stereo not drawn) [Compound 656] | > 5000 | 101 to 1000 | 101 to 1000 | – | – | – |
| CCOc1nc(NC2CNC2)cc(C(=O)NC[C@H](O)CN2CCc3ccccc3C2)n1 [Compound 486] | 1000 to 10000 | < 100 | 101 to 1000 | – | – | – |
| CNC(=O)[C@H]1CC[C@@H](Nc2cc(C(=O)NC[C@H](O)CN3CCc4ccccc4C3)ncn2)CC1 [Compound 597] | 101 to 1000 | < 100 | < 100 | – | – | – |
| O=C(NC[C@H](O)CN1CCc2ccccc2C1)c1ccc(OCCCN2CCCC2)cc1 [Compound 372] | – | – | – | 101 to 1000 | < 100 | < 100 |
| O=C(NC[C@H](O)CN1CCc2ccccc2C1)c1cc(NC2CCNCC2)ccn1 [Compound 549] | > 5000 | < 100 | 101 to 1000 | – | – | – |
